For series [1] the following is noted: per 1 mg, according to the National Formulary, cited from earlier work.
In series [2] the test system is DM individuals with the Hp 2-2 genotype. In words: ICARE study: randomized placebo-controlled trial of vitamin E, cardiovascular events (MI, stroke, CVD death). In kind it is in vivo, human. The source says:
The study protocol of the ICARE study involves the following: participants were drawn from 47 primary health clinics of the […] Health Services in the northern sector of Israel. […] These Hp 2-2 individuals were randomly assigned to treatment with either vitamin E or placebo. The major study outcomes (MI, stroke, CVD death) were identified prospectively in this population over an 18 month period. A preplanned secondary analysis of ICARE was to assess the ability of vitamin E therapy to influence outcomes in those ICARE participants who were also taking statins. Statin use as prospectively defined in ICARE was based on the use of statins by the participant in at least eight of the twelve months preceding enrollment of the participant in the study. The decision to use statins for a particular participant was under the discretion of the patient's primary care physician and was in no way influenced by the patient's participation in the ICARE study […] However, only about half of the Hp 2-2 DM participants in ICARE received statin therapy. […] Of the 801 Hp 2-2 individuals taking […] cohort, 386 were randomized to vitamin E and 415 to placebo. There was no significant difference in the baseline characteristics, concurrent medications, or diabetes characteristics between those individuals taking statins who were randomized to placebo or vitamin E.

Series [3] has as its system cultured endothelial cells. The settings on record: vitamin E added to the cellular preparation; cited from earlier work.
The conditions of series [4]: animal studies; cited from earlier work.
The conditions of series [5]: double-blind protocols and other large studies, even at high doses; cited from earlier work.

Read-outs that look alike come from different tables or passages of the source.

`Cc1c(C)c2c(c(C)c1O)CCC(C)(CCCC(C)CCCC(C)CCCC(C)C)O2` (racemic) [dl-alpha-tocopherol]: in series [1], the “specific activity (IU per milligram)” value is on record as 1.10 IU.

Take `CC(=O)Oc1c(C)c(C)c2c(c1C)CC[C@@](C)(CCC[C@H](C)CCC[C@H](C)CCCC(C)C)O2` (racemic) [dl-alpha-tocopheryl acetate]: the “specific activity (IU per milligram)” value in series [1] (listed as all-rac-α-tocopherol acetate) was 1.00 IU.

In the case of `Cc1c(C)c2c(c(C)c1O)CC[C@@](C)(CCC[C@H](C)CCC[C@H](C)CCCC(C)C)O2` [d-alpha-tocopherol], the “specific activity (IU per milligram)” value in series [1] is 1.49 IU.

Take `CC(=O)Oc1c(C)c(C)c2c(c1C)CC[C@@](C)(CCC[C@H](C)CCC[C@H](C)CCCC(C)C)O2` [d-alpha-tocopheryl acetate]: the “specific activity (IU per milligram)” value in series [1] (listed as RRR-.alpha-tocopherol acetate) is listed as 1.36 IU.

Consider alpha-tocopherol [vitamin E], for which the “event rate (MI, stroke, CVD death)” value in series [2] (Hp 2-2 DM individuals taking statins (at least eight of the twelve months preceding enrollment), randomized to vitamin E, 18 month period) was determined as 1.3%; in series [2] (statin use widened to at least one of the twelve months preceding enrollment, p=0.013 vs placebo) it was 1.7%. For the same compound, the “hazard ratio [HR] vs placebo” value in series [2] (Hp 2-2 DM individuals taking statins, vitamin E vs placebo, 95% CI 0.15-0.83, p=0.017 by log-rank) amounted to 0.31. In series [2] (all Hp 2-2 DM participants in ICARE, vitamin E vs placebo), the “reduction in CVD events” value worked out at 50%. Moreover, the “oxidative modification of LDL” value in series [3] was “totally inhibited”. Besides, in series [4], the carcinogenicity / teratogenicity entry is reported as “not carcinogenic or teratogenic”. The side effects entry in series [5] is “few side effects”.

The record behind these values is patent US20090137617A1, “USE OF HAPTOGLOBIN GENOTYPING IN DIAGNOSIS AND TREATMENT OF CARDIOVASCULAR DISEASE” (priority 2007, published 2009).
